In PMC6917698, “One-Pot Radiosynthesis and Biological Evaluation of a Caspase-3 Selective 5-[^123,125I]iodo-1,2,3-triazole derived Isatin SPECT Tracer” (Scientific Reports, 2019):

How the values were obtained:
[1] = Log D measurement (n-octanol/PBS, gamma counting); format: physicochemical; settings: measured with 125I-labelled compound
[2] = target: T1, Recombinant human caspase-3 (Homo sapiens, UniProt P42574); test: Caspase enzyme inhibition assay (fluorogenic Ac-DEVD-AMC), caspase-3
T1 sequence (P42574 29-175 limits assumed): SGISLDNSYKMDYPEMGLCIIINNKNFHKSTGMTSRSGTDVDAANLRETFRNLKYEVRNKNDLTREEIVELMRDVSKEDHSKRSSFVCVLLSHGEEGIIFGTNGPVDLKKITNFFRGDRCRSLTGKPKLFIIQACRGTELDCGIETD
T1 sequence (P42574 176-277 limits assumed): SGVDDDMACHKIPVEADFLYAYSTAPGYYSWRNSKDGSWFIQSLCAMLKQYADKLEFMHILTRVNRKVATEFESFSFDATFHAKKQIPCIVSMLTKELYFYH

[3] = system: SW1222 tumour-bearing mice; test: Ex vivo biodistribution in SW1222 tumour-bearing mice; settings: for Uptake in tumour: SW1222 xenograft, 60 min after i.v. injection
[4] = target: Recombinant human caspase-8 (Homo sapiens, UniProt Q14790); test: Caspase enzyme inhibition assay (fluorogenic Ac-IETD-AMC), caspase-8
[5] = Plasma metabolite analysis by HPLC; format: in vivo, mice; settings: 15 min post-injection, i.v.
Source text: However, the overall uptake in the tumour was too low to allow in vivo imaging of tumour apoptosis with SPECT. […] It is unclear if this reflects drug induced apoptosis, or if the observed changes were due to swelling or increased local blood flow. […] A single polar radioactive metabolite was detected consistent with deiodination in vivo to give [^125I]iodide. However, it should be noted that a similar polar metabolite has been observed for the non-iodinated analog [^18F]ICM-11, and the low uptake in the thyroid (2.4 ± 1%ID/g at 60 min post-injection) and high liver uptake point to another metabolic route. In any case, the rapid metabolism makes FITI poorly suited as a tracer for in vivo imaging of apoptosis.
After an incubation period at 37 °C
linear correlation software (OriginPro 2015).
3.2. Plasma metabolite analysis
The supernatant was decanted and mixed with
3.3. Biodistribution studies in mice
week prior to initiation of studies.
College London Animal Ethics Committee.4
were rapidly excised and weighed.

[6] = control animals, 60 min after i.v. tail vein injection

Chain of Recombinant human caspase-8 (Q14790 217-374 limits assumed): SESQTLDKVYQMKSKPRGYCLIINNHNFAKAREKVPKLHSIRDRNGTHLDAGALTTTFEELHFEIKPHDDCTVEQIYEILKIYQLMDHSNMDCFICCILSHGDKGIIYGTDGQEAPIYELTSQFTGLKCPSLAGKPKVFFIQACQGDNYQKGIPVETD
Chain of Recombinant human caspase-8 (Q14790 385-479 limits assumed): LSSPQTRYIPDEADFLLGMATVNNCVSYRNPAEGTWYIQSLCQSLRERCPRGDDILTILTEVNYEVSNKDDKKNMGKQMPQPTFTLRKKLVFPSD

| Compound | logD [1] | Ki [2] | Increase in tumour uptake after etoposide-induced cell death ([3]; SW1222 xenograft model, etoposide vs control) | IC50 [4] | Intact parent tracer in mouse plasma [5] | Uptake in thyroid ([3]; 60 min post-injection) | Uptake in liver [3, 6] | Uptake in small intestine [3, 6] | Uptake in stomach [3, 6] | Uptake in tumour ([3]; control animals) | Uptake in tumour ([3]; etoposide-treated mice (50 mg/kg, 24 hrs, i.p.), p < 0.001 vs control) |
| --- | --- | --- | --- | --- | --- | --- | --- | --- | --- | --- | --- |
| O=C1C(=O)N(Cc2nnn(CCF)c2I)c2ccccc21 [compound 4] | 1.14 ± 0.06 | > 50 µM |  |  |  |  |  |  |  |  |  |
| O=C1C(=O)N(Cc2nnn(CCF)c2I)c2ccc(S(=O)(=O)N3CCC[C@H]3COc3ccc(F)cc3F)cc21 [FITI, (S)-5-((2-((2,4-difluorophenoxy)methyl)pyrrolidin-1-yl)sulfonyl)-1-((1-(2-Fluoroethyl)-5-(Iodo)-1H-1,2,3-Triazol-4-yl)methyl)Indoline-2,3-dione] | 1.6 ± 0.1 | 0.0061 ± 0.0009 µM | 2 fold | > 50 µM |  |  |  |  |  |  |  |
| O=C1C(=O)N(Cc2nnn(CCF)c2[125I])c2ccc(S(=O)(=O)N3CCCC3COc3ccc(F)cc3F)cc21 (stereo not shown) [[^125I]FITI] |  |  |  |  | less than 50% | 2.4 ± 1 %ID/g | 17 ± 6 %ID/g | 48 ± 13 %ID/g | 28 ± 25 %ID/g | 0.7 ± 0.4 %ID/g | 1.5 ± 0.2 %ID/g |
